Reference: the supplement of paper PMC10307832

Assays:
Test in all cases: relative viability (nuclei count vs DMSO), 5 days (fraction); higher = more cells survive
NCI-H1648 = test system: NCI-H1648
Outline: (§1)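 Lung cancer cell lines were seeded in 1536-well plates and dosed by pin tool the next day, with either a single drug or a fixed anchor-drug dose combined with five library-drug doses (not always all listed) spaced in √10 steps. Five days later, one step fixed the cells and stained their nuclei (final 0.05% Triton X-100, 1% formaldehyde, 1 ug/ml Hoechst), and nuclei were counted on 4× images. Relative viability is the nuclei count in treated wells divided by the count in vehicle wells, and each value is the median of duplicate plates.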

NCI-H322M = test system: NCI-H322M
Outline: as §1

A549 = test system: A549
Outline: as §1

LCLC-97TM1 = test system: LCLC-97TM1
Outline: as §1

NCI-H596 = test system: NCI-H596
Outline: as §1

NCI-H23 = test system: NCI-H23
Outline: as §1

NCI-H1993 = test system: NCI-H1993
Outline: as §1

NCI-H1355 = test system: NCI-H1355
Outline: as §1

UMC-11 = test system: UMC-11
Outline: as §1

CC(=O)O[C@@]12CO[C@@H]1C[C@H](O)[C@@]1(C)C(=O)[C@H](O)C3=C(C)[C@@H](OC(=O)[C@H](O)[C@@H](NC(=O)OC(C)(C)C)c4ccccc4)C[C@@](O)([C@@H](OC(=O)c4ccccc4)[C@H]21)C3(C)C [Docetaxel] + Nc1ncn([C@H]2C[C@H](O)[C@@H](CO)O2)c(=O)n1 [Decitabine] (partner 2 µM)
relative viability (NCI-H1648; first compound 0.0002 µM): 0.452
relative viability (NCI-H1648; first compound 0.000632 µM): 0.487
relative viability (NCI-H1648; first compound 0.002 µM): 0.339
relative viability (NCI-H1648; first compound 0.006325 µM): 0.216
relative viability (NCI-H1648; first compound 0.02 µM): 0.231
relative viability (NCI-H322M; first compound 0.0002 µM): 0.679
relative viability (NCI-H322M; first compound 0.000632 µM): 0.609
relative viability (NCI-H322M; first compound 0.002 µM): 0.613
relative viability (NCI-H322M; first compound 0.006325 µM): 0.653
relative viability (NCI-H322M; first compound 0.02 µM): 0.553
relative viability (A549; first compound 0.0002 µM): 0.297
relative viability (A549; first compound 0.000632 µM): 0.18
relative viability (A549; first compound 0.002 µM): 0.0587
relative viability (A549; first compound 0.006325 µM): 0.0522
relative viability (A549; first compound 0.02 µM): 0.0318
relative viability (LCLC-97TM1; first compound 0.0002 µM): 0.208
relative viability (LCLC-97TM1; first compound 0.000632 µM): 0.189
relative viability (LCLC-97TM1; first compound 0.002 µM): 0.133
relative viability (LCLC-97TM1; first compound 0.006325 µM): 0.112
relative viability (LCLC-97TM1; first compound 0.02 µM): 0.0836
relative viability (NCI-H596; first compound 0.0002 µM): 1.02
relative viability (NCI-H596; first compound 0.000632 µM): 1.01
relative viability (NCI-H596; first compound 0.002 µM): 1.02
relative viability (NCI-H596; first compound 0.006325 µM): 0.639
relative viability (NCI-H596; first compound 0.02 µM): 0.372
relative viability (NCI-H23; first compound 0.0002 µM): 0.33
relative viability (NCI-H23; first compound 0.000632 µM): 0.303
relative viability (NCI-H23; first compound 0.002 µM): 0.253
relative viability (NCI-H23; first compound 0.006325 µM): 0.256
relative viability (NCI-H23; first compound 0.02 µM): 0.157
relative viability (NCI-H1993; first compound 0.0002 µM): 0.608
relative viability (NCI-H1993; first compound 0.000632 µM): 0.683
relative viability (NCI-H1993; first compound 0.002 µM): 0.646
relative viability (NCI-H1993; first compound 0.006325 µM): 0.585
relative viability (NCI-H1993; first compound 0.02 µM): 0.354
relative viability (NCI-H1355; first compound 0.0002 µM): 0.35
relative viability (NCI-H1355; first compound 0.000632 µM): 0.365
relative viability (NCI-H1355; first compound 0.002 µM): 0.286
relative viability (NCI-H1355; first compound 0.006325 µM): 0.276
relative viability (NCI-H1355; first compound 0.02 µM): 0.179
relative viability (UMC-11; first compound 0.0002 µM): 0.399
relative viability (UMC-11; first compound 0.000632 µM): 0.613
relative viability (UMC-11; first compound 0.002 µM): 0.401
relative viability (UMC-11; first compound 0.006325 µM): 0.345
relative viability (UMC-11; first compound 0.02 µM): 0.238

Nc1ccn([C@@H]2O[C@H](CO)[C@@H](O)[C@@H]2O)c(=O)n1 [Cytarabine] + Nc1ncn([C@H]2C[C@H](O)[C@@H](CO)O2)c(=O)n1 [Decitabine] (partner 2 µM)
relative viability (NCI-H1648; first compound 0.005 µM): 0.479
relative viability (NCI-H1648; first compound 0.01581 µM): 0.526
relative viability (NCI-H1648; first compound 0.05 µM): 0.502
relative viability (NCI-H1648; first compound 0.1581 µM): 0.35
relative viability (NCI-H1648; first compound 0.5 µM): 0.362
relative viability (NCI-H322M; first compound 0.005 µM): 0.687
relative viability (NCI-H322M; first compound 0.01581 µM): 0.608
relative viability (NCI-H322M; first compound 0.05 µM): 0.472
relative viability (NCI-H322M; first compound 0.1581 µM): 0.472
relative viability (NCI-H322M; first compound 0.5 µM): 0.448
relative viability (A549; first compound 0.005 µM): 0.215
relative viability (A549; first compound 0.01581 µM): 0.115
relative viability (A549; first compound 0.05 µM): 0.161
relative viability (A549; first compound 0.1581 µM): 0.0447
relative viability (A549; first compound 0.5 µM): 0.0287
relative viability (LCLC-97TM1; first compound 0.005 µM): 0.205
relative viability (LCLC-97TM1; first compound 0.01581 µM): 0.164
relative viability (LCLC-97TM1; first compound 0.05 µM): 0.211
relative viability (LCLC-97TM1; first compound 0.1581 µM): 0.127
relative viability (LCLC-97TM1; first compound 0.5 µM): 0.111
relative viability (NCI-H596; first compound 0.005 µM): 0.858
relative viability (NCI-H596; first compound 0.01581 µM): 0.916
relative viability (NCI-H596; first compound 0.05 µM): 0.658
relative viability (NCI-H596; first compound 0.1581 µM): 0.581
relative viability (NCI-H596; first compound 0.5 µM): 0.767
relative viability (NCI-H23; first compound 0.005 µM): 0.296
relative viability (NCI-H23; first compound 0.01581 µM): 0.267
relative viability (NCI-H23; first compound 0.05 µM): 0.274
relative viability (NCI-H23; first compound 0.1581 µM): 0.195
relative viability (NCI-H23; first compound 0.5 µM): 0.193
relative viability (NCI-H1993; first compound 0.005 µM): 0.584
relative viability (NCI-H1993; first compound 0.01581 µM): 0.441
relative viability (NCI-H1993; first compound 0.05 µM): 0.516
relative viability (NCI-H1993; first compound 0.1581 µM): 0.471
relative viability (NCI-H1993; first compound 0.5 µM): 0.206
relative viability (NCI-H1355; first compound 0.005 µM): 0.349
relative viability (NCI-H1355; first compound 0.01581 µM): 0.332
relative viability (NCI-H1355; first compound 0.05 µM): 0.337
relative viability (NCI-H1355; first compound 0.1581 µM): 0.242
relative viability (NCI-H1355; first compound 0.5 µM): 0.255
relative viability (UMC-11; first compound 0.005 µM): 0.547
relative viability (UMC-11; first compound 0.01581 µM): 0.521
relative viability (UMC-11; first compound 0.05 µM): 0.328
relative viability (UMC-11; first compound 0.1581 µM): 0.32
relative viability (UMC-11; first compound 0.5 µM): 0.306
